# From patent publication US10710978B2, “STK4 inhibitors for treatment of hematologic malignancies” (Dana-Farber Cancer Institute, Inc., priority 2015, dated 2020)
# pIC50: −log10 of the molar value. Read-outs that look alike come from different tables or passages of the source.
# Legend:
# STK24 (MST3) = STK24 (MST3) (Homo sapiens (Human), UniProt Q9Y6E0); assay: Z-lyte biochemical IC50 assay (Invitrogen); details: ATP concentration matched the Km
# In short: (§1)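 FRET-based Z-lyte kinase assays run at Invitrogen, ATP at each kinase's Km; for STK4, 6.25-160 ng enzyme with 2 μM Ser/Thr 07 peptide in HEPES pH 7.5, MgCl2, EGTA, Brij-35, 1 h reaction then development reagent. 10-point 3-fold titration from 10 μM.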
# STK4 (MST1) = STK4 (MST1) (Homo sapiens (Human), UniProt Q13043); assay: Z-lyte biochemical IC50 assay (Invitrogen); details: ATP concentration matched the Km
# In short: as §1
# CK1a = CK1a (Homo sapiens (Human), UniProt P48729); assay: KiNativ assay; format: binding; details: H929 live cell
# Method: (§2) Biochemical IC50s of the compounds of the present disclosure against various kinases were measured in a KiNativ assay. Compounds were screened in duplicate at 10 μM in H929 live cell. IC50 was measured via Mass spectroscopy (MS).
# CK1g2 = CK1g2 (Homo sapiens (Human), UniProt P78368); assay: KiNativ assay; format: binding; details: H929 live cell
# Method: as §2
# CLK2 = CLK2 (Homo sapiens (Human), UniProt P49760); assay: KiNativ assay; format: binding; details: H929 live cell
# Method: as §2
# GCN2 domain2 = GCN2 domain2 (Homo sapiens (Human), UniProt Q9P2K8); assay: KiNativ assay; format: binding; details: H929 live cell
# Method: as §2
# GSK3B = GSK3B (Homo sapiens (Human), UniProt P49841); assay: KiNativ assay; format: binding; details: H929 live cell
# Method: as §2
# IKKa = IKKa (Homo sapiens (Human), UniProt O15111); assay: KiNativ assay; format: binding; details: H929 live cell
# Method: as §2
# IRE1 = IRE1 (Homo sapiens (Human), UniProt O75460); assay: KiNativ assay; format: binding; details: H929 live cell
# Method: as §2
# MAP2K7 = MAP2K7 (Homo sapiens (Human), UniProt O14733); assay: KiNativ assay; format: binding; details: H929 live cell
# Method: as §2
# MSK2 domain1 = MSK2 domain1 (Homo sapiens (Human), UniProt O75676); assay: KiNativ assay; format: binding; details: H929 live cell
# Method: as §2
# MST2 = MST2 (Homo sapiens (Human), UniProt Q13188); assay: KiNativ assay; format: binding; details: H929 live cell
# Method: as §2
# NDR2 = NDR2 (Homo sapiens (Human), UniProt Q9Y2H1); assay: KiNativ assay; format: binding; details: H929 live cell
# Method: as §2
# PFTAIRE1 = PFTAIRE1 (Homo sapiens (Human), UniProt O94921); assay: KiNativ assay; format: binding; details: H929 live cell
# Method: as §2
# PLK1 = PLK1 (Homo sapiens (Human), UniProt P53350); assay: KiNativ assay; format: binding; details: H929 live cell
# Method: as §2
# SGK3 = SGK3 (Homo sapiens (Human), UniProt Q96BR1); assay: KiNativ assay; format: binding; details: H929 live cell
# Method: as §2
# SLK = SLK (Homo sapiens (Human), UniProt Q9H2G2); assay: KiNativ assay; format: binding; details: H929 live cell
# Method: as §2
# STLK6 = STLK6 (Homo sapiens (Human), UniProt Q9C0K7); assay: KiNativ assay; format: binding; details: H929 live cell
# Method: as §2
# [1] = range class, read-out: % inhibition
# CK1g2, sequence (P78368 whole entry): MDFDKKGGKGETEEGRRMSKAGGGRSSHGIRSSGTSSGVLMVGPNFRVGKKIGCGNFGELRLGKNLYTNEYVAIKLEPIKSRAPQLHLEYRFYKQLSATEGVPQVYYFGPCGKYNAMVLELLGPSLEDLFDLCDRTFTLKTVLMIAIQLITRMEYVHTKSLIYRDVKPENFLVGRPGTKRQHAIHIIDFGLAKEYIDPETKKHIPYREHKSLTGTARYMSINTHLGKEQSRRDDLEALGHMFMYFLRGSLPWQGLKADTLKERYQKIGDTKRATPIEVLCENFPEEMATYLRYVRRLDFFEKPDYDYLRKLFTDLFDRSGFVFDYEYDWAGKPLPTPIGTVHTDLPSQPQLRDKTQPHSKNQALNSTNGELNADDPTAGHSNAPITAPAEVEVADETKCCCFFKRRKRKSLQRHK
# SGK3, sequence (Q96BR1 whole entry): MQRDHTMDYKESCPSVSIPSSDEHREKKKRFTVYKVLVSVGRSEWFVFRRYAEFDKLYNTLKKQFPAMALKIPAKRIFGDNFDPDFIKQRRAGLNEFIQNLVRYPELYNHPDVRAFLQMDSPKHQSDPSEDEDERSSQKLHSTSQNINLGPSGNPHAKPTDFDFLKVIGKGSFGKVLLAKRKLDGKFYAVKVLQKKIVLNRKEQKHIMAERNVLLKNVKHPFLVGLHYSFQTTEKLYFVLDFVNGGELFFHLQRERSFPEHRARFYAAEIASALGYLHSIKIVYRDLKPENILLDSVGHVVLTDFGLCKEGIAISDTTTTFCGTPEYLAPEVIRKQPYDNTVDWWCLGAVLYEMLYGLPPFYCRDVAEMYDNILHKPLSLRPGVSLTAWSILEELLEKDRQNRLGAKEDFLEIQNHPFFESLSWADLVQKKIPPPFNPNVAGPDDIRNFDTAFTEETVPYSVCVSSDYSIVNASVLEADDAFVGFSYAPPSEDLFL
# PLK1, sequence (P53350 whole entry): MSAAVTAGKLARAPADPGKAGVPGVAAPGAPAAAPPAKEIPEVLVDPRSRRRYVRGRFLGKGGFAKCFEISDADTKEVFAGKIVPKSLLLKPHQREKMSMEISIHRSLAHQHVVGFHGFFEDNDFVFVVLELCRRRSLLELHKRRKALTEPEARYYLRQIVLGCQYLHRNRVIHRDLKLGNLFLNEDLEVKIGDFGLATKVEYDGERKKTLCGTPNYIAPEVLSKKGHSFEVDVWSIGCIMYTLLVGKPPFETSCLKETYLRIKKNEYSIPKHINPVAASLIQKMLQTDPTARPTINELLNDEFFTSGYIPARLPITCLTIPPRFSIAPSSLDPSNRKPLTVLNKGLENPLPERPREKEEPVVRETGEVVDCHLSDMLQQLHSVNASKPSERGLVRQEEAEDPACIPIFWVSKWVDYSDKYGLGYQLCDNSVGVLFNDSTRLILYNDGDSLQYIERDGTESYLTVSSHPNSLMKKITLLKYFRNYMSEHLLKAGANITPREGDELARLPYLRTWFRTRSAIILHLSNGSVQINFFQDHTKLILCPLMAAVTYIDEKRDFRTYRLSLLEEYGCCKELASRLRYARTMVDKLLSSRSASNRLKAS
# PFTAIRE1, sequence (O94921 whole entry): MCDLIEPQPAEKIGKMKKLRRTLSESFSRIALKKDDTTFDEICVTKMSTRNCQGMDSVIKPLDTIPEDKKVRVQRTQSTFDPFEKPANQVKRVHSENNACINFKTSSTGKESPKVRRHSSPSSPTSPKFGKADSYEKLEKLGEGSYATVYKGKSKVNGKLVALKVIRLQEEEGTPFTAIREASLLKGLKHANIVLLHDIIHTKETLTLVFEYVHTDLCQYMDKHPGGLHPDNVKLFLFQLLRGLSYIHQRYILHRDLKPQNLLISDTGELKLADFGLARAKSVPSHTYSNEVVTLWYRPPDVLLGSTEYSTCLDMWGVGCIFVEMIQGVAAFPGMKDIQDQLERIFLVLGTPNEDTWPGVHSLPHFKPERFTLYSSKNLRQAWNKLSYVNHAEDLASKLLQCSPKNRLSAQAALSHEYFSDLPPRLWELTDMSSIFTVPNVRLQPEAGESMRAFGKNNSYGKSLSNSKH
# PFTAIRE1, sequence (Q8ND76 whole entry partner): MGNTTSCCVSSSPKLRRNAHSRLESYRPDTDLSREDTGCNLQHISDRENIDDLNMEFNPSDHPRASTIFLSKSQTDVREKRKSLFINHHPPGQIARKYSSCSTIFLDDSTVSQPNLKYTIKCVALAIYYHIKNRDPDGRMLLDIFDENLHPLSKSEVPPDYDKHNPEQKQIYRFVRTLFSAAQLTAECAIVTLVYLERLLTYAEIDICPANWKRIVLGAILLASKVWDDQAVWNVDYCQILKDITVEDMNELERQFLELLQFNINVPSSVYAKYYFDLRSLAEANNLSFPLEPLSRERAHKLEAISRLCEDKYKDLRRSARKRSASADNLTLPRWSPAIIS
# MST2, sequence (Q13188 whole entry): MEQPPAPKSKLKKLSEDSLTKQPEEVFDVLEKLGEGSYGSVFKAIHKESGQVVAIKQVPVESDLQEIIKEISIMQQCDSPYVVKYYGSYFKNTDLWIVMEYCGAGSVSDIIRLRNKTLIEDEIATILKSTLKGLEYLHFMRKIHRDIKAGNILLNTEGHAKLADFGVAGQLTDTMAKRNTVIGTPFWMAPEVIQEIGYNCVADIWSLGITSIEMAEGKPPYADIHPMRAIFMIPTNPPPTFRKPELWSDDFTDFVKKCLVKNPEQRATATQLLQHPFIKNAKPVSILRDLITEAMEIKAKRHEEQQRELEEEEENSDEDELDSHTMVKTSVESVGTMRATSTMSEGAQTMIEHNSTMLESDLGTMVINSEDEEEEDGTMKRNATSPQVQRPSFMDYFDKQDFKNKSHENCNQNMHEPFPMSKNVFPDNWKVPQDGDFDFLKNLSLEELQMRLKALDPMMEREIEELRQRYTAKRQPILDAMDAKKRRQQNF
# STLK6, sequence (Q9C0K7 whole entry): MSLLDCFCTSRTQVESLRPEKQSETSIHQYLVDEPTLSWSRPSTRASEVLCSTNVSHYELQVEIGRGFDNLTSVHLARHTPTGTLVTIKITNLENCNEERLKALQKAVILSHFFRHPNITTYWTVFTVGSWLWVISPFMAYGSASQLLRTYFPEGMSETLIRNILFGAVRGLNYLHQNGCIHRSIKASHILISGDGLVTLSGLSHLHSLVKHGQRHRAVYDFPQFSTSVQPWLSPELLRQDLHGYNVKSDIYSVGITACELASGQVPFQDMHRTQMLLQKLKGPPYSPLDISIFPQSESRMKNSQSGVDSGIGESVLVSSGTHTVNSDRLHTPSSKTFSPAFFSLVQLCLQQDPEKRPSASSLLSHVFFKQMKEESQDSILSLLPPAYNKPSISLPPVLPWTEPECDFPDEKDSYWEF
# NDR2, sequence (Q9Y2H1 whole entry): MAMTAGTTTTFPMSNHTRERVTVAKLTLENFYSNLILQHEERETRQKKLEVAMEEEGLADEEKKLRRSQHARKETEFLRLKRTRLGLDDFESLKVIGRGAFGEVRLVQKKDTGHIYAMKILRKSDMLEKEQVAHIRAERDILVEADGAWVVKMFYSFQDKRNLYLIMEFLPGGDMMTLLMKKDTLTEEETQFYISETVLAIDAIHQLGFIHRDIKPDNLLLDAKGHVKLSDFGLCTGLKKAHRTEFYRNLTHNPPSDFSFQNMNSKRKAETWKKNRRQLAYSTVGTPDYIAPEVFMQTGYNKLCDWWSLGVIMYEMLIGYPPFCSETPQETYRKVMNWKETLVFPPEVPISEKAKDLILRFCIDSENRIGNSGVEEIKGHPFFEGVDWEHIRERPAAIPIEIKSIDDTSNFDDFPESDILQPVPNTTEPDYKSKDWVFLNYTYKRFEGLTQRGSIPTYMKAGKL
# IRE1, sequence (O75460 19-977): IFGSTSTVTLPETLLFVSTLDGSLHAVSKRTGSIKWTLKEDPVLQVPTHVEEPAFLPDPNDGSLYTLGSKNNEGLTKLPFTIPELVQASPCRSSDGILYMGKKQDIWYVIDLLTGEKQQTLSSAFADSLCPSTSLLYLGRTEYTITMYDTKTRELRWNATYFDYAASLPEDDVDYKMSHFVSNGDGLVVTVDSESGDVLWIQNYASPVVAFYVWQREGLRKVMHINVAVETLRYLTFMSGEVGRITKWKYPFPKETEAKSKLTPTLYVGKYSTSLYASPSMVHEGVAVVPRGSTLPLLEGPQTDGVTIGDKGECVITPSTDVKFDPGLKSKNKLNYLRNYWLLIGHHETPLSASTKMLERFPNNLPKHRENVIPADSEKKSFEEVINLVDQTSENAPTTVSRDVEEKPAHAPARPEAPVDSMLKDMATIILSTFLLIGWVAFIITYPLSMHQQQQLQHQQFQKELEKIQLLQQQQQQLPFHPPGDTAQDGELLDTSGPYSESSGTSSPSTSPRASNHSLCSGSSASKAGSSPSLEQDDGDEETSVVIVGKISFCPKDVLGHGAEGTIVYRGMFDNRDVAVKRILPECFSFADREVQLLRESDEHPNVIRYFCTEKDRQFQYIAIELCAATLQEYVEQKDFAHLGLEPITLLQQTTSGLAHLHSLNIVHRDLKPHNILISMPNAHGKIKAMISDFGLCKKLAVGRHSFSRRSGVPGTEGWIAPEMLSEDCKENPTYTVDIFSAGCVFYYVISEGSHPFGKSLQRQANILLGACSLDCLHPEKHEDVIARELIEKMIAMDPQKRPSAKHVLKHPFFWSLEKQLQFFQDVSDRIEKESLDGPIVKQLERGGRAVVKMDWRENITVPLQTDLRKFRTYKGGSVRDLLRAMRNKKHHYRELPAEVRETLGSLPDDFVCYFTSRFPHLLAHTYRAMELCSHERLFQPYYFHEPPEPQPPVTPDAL
# CK1a, sequence (P48729 whole entry): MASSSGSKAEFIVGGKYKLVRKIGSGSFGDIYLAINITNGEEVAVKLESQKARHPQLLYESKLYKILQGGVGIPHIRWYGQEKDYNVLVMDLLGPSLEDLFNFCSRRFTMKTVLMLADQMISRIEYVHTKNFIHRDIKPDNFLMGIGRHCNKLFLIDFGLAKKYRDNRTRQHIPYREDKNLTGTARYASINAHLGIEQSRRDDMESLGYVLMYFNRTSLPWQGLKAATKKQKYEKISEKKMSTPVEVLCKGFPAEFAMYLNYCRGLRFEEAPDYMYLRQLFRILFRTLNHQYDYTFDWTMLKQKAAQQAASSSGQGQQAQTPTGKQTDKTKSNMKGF
structure (smiles),measurement,setting,value
"Nc1ncc(-c2ccc(NS(=O)(=O)C3CC3)cc2OC2CCCCC2)cc1-c1ccc2c(c1)CCNC2=O [Compound I-65, N-(4-(6-amino-5-(1-oxo-1,2,3,4-tetrahydroisoquinolin-6-yl)pyridin-3-yl)-3-(cyclohexyloxy)phenyl) cyclopropanesulfonamide]",pIC50,STK24 (MST3),< 6.05
same,pIC50,STK4 (MST1),> 7.40
same,inhibition at 10 µM,CK1a; [1],0%
same,inhibition at 10 µM,CK1a; read-out: inhibition (10 μM),-65.1%
same,inhibition at 10 µM,CK1g2; [1],50 to 75%
same,inhibition at 10 µM,CK1g2; read-out: inhibition (10 μM),74.5%
same,inhibition at 10 µM,CLK2; [1],50 to 75%
same,inhibition at 10 µM,CLK2; read-out:,69.4%
same,inhibition at 10 µM,GCN2 domain2; [1],35 to 40%
same,inhibition at 10 µM,GCN2 domain2; read-out: inhibition (10 μM),43.5%
same,inhibition at 10 µM,GSK3B; [1],> 90%
same,inhibition at 10 µM,GSK3B; read-out: inhibition (10 μM),90%
same,inhibition at 10 µM,IKKa; [1],0%
same,inhibition at 10 µM,IKKa; read-out: inhibition (10 μM),-34.3%
same,inhibition at 10 µM,IRE1; [1],0%
same,inhibition at 10 µM,IRE1; read-out: inhibition (10 μM),-6.3%
same,inhibition at 10 µM,MAP2K7; [1],0%
same,inhibition at 10 µM,MAP2K7; read-out: inhibition (10 μM),3.3%
same,inhibition at 10 µM,MSK2 domain1; [1],0%
same,inhibition at 10 µM,MSK2 domain1; read-out: inhibition (10 μM),-83.6%
same,inhibition at 10 µM,MST2; [1],> 90%
same,inhibition at 10 µM,MST2; read-out: inhibition (10 μM),97.3%
same,inhibition at 10 µM,NDR2; [1],0%
same,inhibition at 10 µM,NDR2; read-out: inhibition (10 μM),-8.7%
same,inhibition at 10 µM,PFTAIRE1; [1],0%
same,inhibition at 10 µM,PFTAIRE1; read-out: inhibition (10 μM),-5.1%
same,inhibition at 10 µM,PLK1; [1],0%
same,inhibition at 10 µM,PLK1; read-out: inhibition (10 μM),-10.1%
same,inhibition at 10 µM,SGK3; [1],0%
same,inhibition at 10 µM,SGK3; read-out: inhibition (10 μM),13.5%
same,inhibition at 10 µM,SLK; [1],> 90%
same,inhibition at 10 µM,SLK; read-out: inhibition (10 μM),97.8%
same,inhibition at 10 µM,STLK6; [1],0%
same,inhibition at 10 µM,STLK6; read-out: inhibition (10 μM),-15.9%
